Experiment: method code SF-HPLC, from DOI: 10.1021/jm4016729, PMID: 24422550
Settings: pH 7.4

| logD | SMILES |
| --- | --- |
| 2.4 | O=C(NC1C2CC3CC1CC(O)(C3)C2)c1sc(C2CCCO2)nc1C1CC1 (configuration not stated) |
| 1.5 | Cc1nc(C2=COC2)c(C(=O)NC2C3CC4CC2C(O)(C4)C3)s1 (configuration not stated) |

From the SangsterLogP compilation
